Reference: US9695155B2, “Herbicidal substituted pyrimidinyloxy benzene compounds” (E. I. DU PONT DE NEMOURS AND COMPANY, priority 2013, dated 2017)

Assays:
blackgrass = test: Test A postemergence; type: in vivo, Alopecurus myosuroides; details: 0 to 100 scale, 0 no effect, 100 complete control
Summary of the method: (§1)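 Scoring: eye-based comparison with untreated controls, 0 for no effect through 100 for complete control, at about day 10. Treatments: directed soil spray preemergence; foliar spray postemergence on 2–10 cm plants at the one- to two-leaf stage. Medium: loam soil with sand.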

ragweed [1] = test: Test A preemergence; type: in vivo, Ambrosia elatior; details: for Plant response rating, Ragweed: 31 g ai/ha, 0 to 100 scale where 0 is no effect and 100 is complete control, visual, approximately 10 days; for Ragweed plant response rating (0 to 100 scale): 125 g ai/ha
Summary of the method: as §1

pigweed [2] = test: Test A preemergence; type: in vivo, Amaranthus retroflexus; details: for Plant response rating, Pigweed: 31 g ai/ha, 0 to 100 scale where 0 is no effect and 100 is complete control, visual, approximately 10 days; for Pigweed plant response rating (0 to 100 scale): 125 g ai/ha
Summary of the method: as §1

sedge, umbrella = test: Test B flooded paddy test; type: in vivo, Cyperus difformis; details: Flood, 250 g ai/ha; 0 to 100 scale where 0 is no effect and 100 is complete control
Summary of the method: (§2)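 2-leaf stage plants; pots flooded to 3 cm, compound added to paddy water, depth maintained. Greenhouse 13–15 d. Visual rating vs untreated controls, 0 (no effect) to 100 (complete control); dash = no result.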

galium = test: Test A postemergence; type: in vivo, Galium aparine; details: 0 to 100 scale, 0 no effect, 100 complete control
Summary of the method: as §1

Italian ryegrass [3] = test: Test A postemergence; type: in vivo, Lolium multiflorum; details: 0 to 100 scale, 0 no effect, 100 complete control
Summary of the method: as §1

giant foxtail [4] = test: Test A preemergence; type: in vivo, Setaria faberii; details: for Plant response rating, Foxtail, Giant: 31 g ai/ha, 0 to 100 scale where 0 is no effect and 100 is complete control, visual, approximately 10 days; for Foxtail, Giant plant response rating (0 to 100 scale): 125 g ai/ha
Summary of the method: as §1

barnyardgrass [5] = test: Test A preemergence; type: in vivo, Echinochloa crus-galli; details: for Plant response rating, Barnyardgrass: 31 g ai/ha, 0 to 100 scale where 0 is no effect and 100 is complete control, visual, approximately 10 days; for Barnyardgrass plant response rating (0 to 100 scale, 0 is no effect, 100 is complete control): 125 g ai/ha
Summary of the method: as §1

Italian ryegrass [6] = test: Test A preemergence; type: in vivo, Lolium multiflorum; details: for Plant response rating, Ryegrass, Italian: 31 g ai/ha, 0 to 100 scale where 0 is no effect and 100 is complete control, visual, approximately 10 days; for Ryegrass, Italian plant response rating (0 to 100 scale): 125 g ai/ha
Summary of the method: as §1

wheat = test: Test A postemergence; type: in vivo, Triticum aestivum; details: 0 to 100 scale, 0 no effect, 100 complete control
Summary of the method: as §1

ragweed [7] = test: Test A postemergence; type: in vivo, Ambrosia elatior; details: 0 to 100 scale, 0 no effect, 100 complete control
Summary of the method: as §1

Heteranthera limosa = test: Test B flooded paddy test; type: in vivo; details: Flood, 250 g ai/ha; 0 to 100 scale where 0 is no effect and 100 is complete control
Summary of the method: as §2

pigweed [8] = test: Test A postemergence; type: in vivo, Amaranthus retroflexus; details: 0 to 100 scale, 0 no effect, 100 complete control
Summary of the method: as §1

barnyardgrass [9] = test: Test B flooded paddy test; type: in vivo, Echinochloa crus-galli; details: Flood, 250 g ai/ha; 0 to 100 scale where 0 is no effect and 100 is complete control
Summary of the method: as §2

barnyardgrass [10] = test: Test A postemergence; type: in vivo, Echinochloa crus-galli; details: 0 to 100 scale, 0 no effect, 100 complete control
Summary of the method: as §1

rice = test: Test B flooded paddy test; type: in vivo, Oryza sativa; details: Flood, 250 g ai/ha; 0 to 100 scale where 0 is no effect and 100 is complete control
Summary of the method: as §2

giant foxtail [11] = test: Test A postemergence; type: in vivo, Setaria faberii; details: 0 to 100 scale, 0 no effect, 100 complete control
Summary of the method: as §1

kochia [12] = test: Test A preemergence; type: in vivo, Kochia scoparia; details: for Plant response rating, Kochia: 31 g ai/ha, 0 to 100 scale where 0 is no effect and 100 is complete control, visual, approximately 10 days; for Kochia plant response rating (0 to 100 scale): 125 g ai/ha
Summary of the method: as §1

kochia [13] = test: Test A postemergence; type: in vivo, Kochia scoparia; details: 0 to 100 scale, 0 no effect, 100 complete control
Summary of the method: as §1

corn = test: Test A postemergence; type: in vivo, Zea mays; details: 0 to 100 scale, 0 no effect, 100 complete control
Summary of the method: as §1

Row | SMILES | Plant response rating, Blackgrass (blackgrass; 31 g ai/ha) | Plant response rating, Blackgrass (blackgrass; 125 g ai/ha) | Plant response rating, Ragweed (ragweed [1]) | Ragweed plant response rating (0 to 100 scale) (ragweed [1]) | Plant response rating, Pigweed (pigweed [2]) | Pigweed plant response rating (0 to 100 scale) (pigweed [2]) | Plant response rating, Sedge, Umbrella (sedge, umbrella) | Plant response rating, Galium (galium; 31 g ai/ha) | Plant response rating, Galium (galium; 125 g ai/ha) | Plant response rating, Ryegrass, Italian (Italian ryegrass [3]; 31 g ai/ha) | Plant response rating, Ryegrass, Italian (Italian ryegrass [3]; 125 g ai/ha) | Plant response rating, Foxtail, Giant (giant foxtail [4]) | Foxtail, Giant plant response rating (0 to 100 scale) (giant foxtail [4]) | Plant response rating, Barnyardgrass (barnyardgrass [5]) | Barnyardgrass plant response rating (0 to 100 scale, 0 is no effect, 100 is complete control) (barnyardgrass [5]) | Plant response rating, Ryegrass, Italian (Italian ryegrass [6]) | Ryegrass, Italian plant response rating (0 to 100 scale) (Italian ryegrass [6]) | Plant response rating, Wheat (wheat; 31 g ai/ha) | Plant response rating, Wheat (wheat; 125 g ai/ha) | Plant response rating, Ragweed (ragweed [7]; 31 g ai/ha) | also measured
1 | N#Cc1cccc(Oc2ncc(Cl)cn2)c1-n1ccnc1 [Compound 261] | 0 | 0 | 0 | 0 | 0 | 0 | 0 | 30 | 50 | 0 | 0 | 0 | 0 | 0 | 0 | 0 | 0 | 0 | 0 | 20 | Plant response rating, Ragweed (ragweed [7]; 125 g ai/ha): 30; Plant response rating, Ducksalad (Heteranthera limosa): 0; Plant response rating, Pigweed (pigweed [8]; 31 g ai/ha): 30; Plant response rating, Pigweed (pigweed [8]; 125 g ai/ha): 60; Plant response rating, Barnyardgrass (barnyardgrass [9]): 0; Plant response rating, Barnyardgrass (barnyardgrass [10]; 31 g ai/ha): 0; Plant response rating, Barnyardgrass (barnyardgrass [10]; 125 g ai/ha): 0; Plant response rating, Rice (rice): 0; Plant response rating, Foxtail, Giant (giant foxtail [11]; 31 g ai/ha): 0; Plant response rating, Foxtail, Giant (giant foxtail [11]; 125 g ai/ha): 10; Plant response rating, Kochia (kochia [12]): 0; Kochia plant response rating (0 to 100 scale) (kochia [12]): 0; Plant response rating, Kochia (kochia [13]; 31 g ai/ha): 50; Plant response rating, Kochia (kochia [13]; 125 g ai/ha): 70; Plant response rating, Corn (corn; 31 g ai/ha): 0; Plant response rating, Corn (corn; 125 g ai/ha): 0
2 | Cc1cc(C)n(-c2ccccc2Oc2ncc(Cl)cn2)n1 [Compound 264] | 0 | 0 | 0 | 0 | 0 | 0 | 0 | 0 | 0 | 0 | 0 | 0 | 0 | 0 | 0 | 0 | 0 | 0 | 0 | 0 | Plant response rating, Ragweed (ragweed [7]; 125 g ai/ha): 0; Plant response rating, Ducksalad (Heteranthera limosa): 0; Plant response rating, Pigweed (pigweed [8]; 31 g ai/ha): 0; Plant response rating, Pigweed (pigweed [8]; 125 g ai/ha): 0; Plant response rating, Barnyardgrass (barnyardgrass [9]): 0; Plant response rating, Barnyardgrass (barnyardgrass [10]; 31 g ai/ha): 0; Plant response rating, Barnyardgrass (barnyardgrass [10]; 125 g ai/ha): 0; Plant response rating, Rice (rice): 0; Plant response rating, Foxtail, Giant (giant foxtail [11]; 31 g ai/ha): 0; Plant response rating, Foxtail, Giant (giant foxtail [11]; 125 g ai/ha): 0; Plant response rating, Kochia (kochia [12]): 0; Kochia plant response rating (0 to 100 scale) (kochia [12]): 0; Plant response rating, Kochia (kochia [13]; 31 g ai/ha): 0; Plant response rating, Kochia (kochia [13]; 125 g ai/ha): 0; Plant response rating, Corn (corn; 31 g ai/ha): 0; Plant response rating, Corn (corn; 125 g ai/ha): 0
3 | Cc1cc(C(F)F)nn1-c1ccccc1Oc1ncc(Cl)cn1 [Compound 267] | 0 | 0 | 0 | 0 | 0 | 0 | 0 | 0 | 10 | 0 | 0 | 0 | 0 | 0 | 0 | 0 | 0 | 0 | 0 | 0 | Plant response rating, Ragweed (ragweed [7]; 125 g ai/ha): 0; Plant response rating, Ducksalad (Heteranthera limosa): 0; Plant response rating, Pigweed (pigweed [8]; 31 g ai/ha): 0; Plant response rating, Pigweed (pigweed [8]; 125 g ai/ha): 0; Plant response rating, Barnyardgrass (barnyardgrass [9]): 0; Plant response rating, Barnyardgrass (barnyardgrass [10]; 31 g ai/ha): 0; Plant response rating, Barnyardgrass (barnyardgrass [10]; 125 g ai/ha): 0; Plant response rating, Rice (rice): 0; Plant response rating, Foxtail, Giant (giant foxtail [11]; 31 g ai/ha): 0; Plant response rating, Foxtail, Giant (giant foxtail [11]; 125 g ai/ha): 0; Plant response rating, Kochia (kochia [12]): 0; Kochia plant response rating (0 to 100 scale) (kochia [12]): 0; Plant response rating, Kochia (kochia [13]; 31 g ai/ha): 0; Plant response rating, Kochia (kochia [13]; 125 g ai/ha): 0; Plant response rating, Corn (corn; 31 g ai/ha): 0; Plant response rating, Corn (corn; 125 g ai/ha): 0
4 | Clc1cnc(Oc2ccccc2-n2cccc2)nc1 [Compound 269] | 0 | 0 | 0 | 0 | 0 | 0 | 0 | 0 | 0 | 0 | 0 | 0 | 0 | 0 | 0 | 0 | 0 | 0 | 0 | 0 | Plant response rating, Ragweed (ragweed [7]; 125 g ai/ha): 0; Plant response rating, Ducksalad (Heteranthera limosa): 0; Plant response rating, Pigweed (pigweed [8]; 31 g ai/ha): 0; Plant response rating, Pigweed (pigweed [8]; 125 g ai/ha): 0; Plant response rating, Barnyardgrass (barnyardgrass [9]): 0; Plant response rating, Barnyardgrass (barnyardgrass [10]; 31 g ai/ha): 0; Plant response rating, Barnyardgrass (barnyardgrass [10]; 125 g ai/ha): 0; Plant response rating, Rice (rice): 0; Plant response rating, Foxtail, Giant (giant foxtail [11]; 31 g ai/ha): 0; Plant response rating, Foxtail, Giant (giant foxtail [11]; 125 g ai/ha): 0; Plant response rating, Kochia (kochia [12]): 0; Kochia plant response rating (0 to 100 scale) (kochia [12]): 0; Plant response rating, Kochia (kochia [13]; 31 g ai/ha): 0; Plant response rating, Kochia (kochia [13]; 125 g ai/ha): 0; Plant response rating, Corn (corn; 31 g ai/ha): 0; Plant response rating, Corn (corn; 125 g ai/ha): 0
